The results in this text go back to EP0497299A1, “Decarestrictine and related compounds, process for their preparation and use” (HOECHST AKTIENGESELLSCHAFT, priority 1991, dated 1992).

The structures appear in SMILES notation.

The test concerns Cholesterinbiosynthese. The experiment in a line: Inhibition of cholesterol biosynthesis from 14C-acetate in HEP-G2 liver cell culture. Format: cell-based. To be noted: Homo sapiens, HepG2, 3 h, HEP-G2-Zellen; for inhibition at 0.01 µM: Konzentration von 10⁻⁸ mol/l, read-out: Hemmung der Cholesterinbiosynthese; for IC50: (¹⁴C)Natriumacetat, standard preparations, read-out: IC₅₀. An excerpt: 2. Die biologische Wirksamkeit der Verbindungen als Inhibitor an der Cholesterinbiosynthese läßt sich in vitro in Leberzellkulturen nachweisen.
Monolayer von HEP-G2-Zellen in lipoproteinfreiem Nährmedium werden mit entsprechenden Konzentrationen der zu prüfenden Substanzen der allgemeinen Formel I eine Stunde vorinkubiert. Nach Zugabe der ¹⁴C-markierten Biosynthesevorstufe (¹⁴C)Natriumacetat wird die Inkubation für 3 Stunden fortgesetzt. Danach wird ein Teil der Zellen alkalisch verseift, bei vorheriger Zugabe eines internen Standards von ³H-Cholesterin. Die Lipide der verseiften Zellen werden mit einem Gemisch aus Chloroform-Methanol extrahiert. Dieses Lipidgemisch wird nach Zusatz von Trägercholesterin präparativ dünnschichtchromatographisch aufgetrennt, die Cholesterinbande nach Anfärbung isoliert und die aus dem ¹⁴C-Precursor gebildete Menge ¹⁴C-Cholesterin szintigraphisch bestimmt. In einem aliquoten Teil der Zellen wurde Zellprotein bestimmt, so daß die in der Zelleinheit pro mg Zellprotein aus ¹⁴C-Präkusor gebildete Menge ¹⁴C-Cholesterins berechnet werden kann. Zum Vergleich für die Hemmwirkung eines zugesetzten Prüfpräparates dient die Kontrolle, so daß direkt die Hemmung der Cholesterinbiosynthese bei einer bestimmten molaren Konzentration des Prüfpräparates im Medium angegeben werden kann. In aliquoten Anteilen der Zellkultur wird die Intaktheit der Zellkultur und die fehlende Zellschädigung durch Präparateeinwirkung morphologisch (Lichtmikroskopie) beurteilt und biochemisch durch Bestimmung der Lactat-Dehydrogenase-Abgabe ins Inkubationsmedium gemessen.

On to `COC(=O)C=C1CC(O)C(C(O)CC(C)O)O1` (stereo not shown) [Formel 1.5], for which the inhibition at 0.01 µM was 60%.

Turning to `CC[C@H](C)C(=O)O[C@H]1C[C@@H](C)C=C2C=C[C@H](C)[C@H](CC[C@@H]3C[C@@H](O)CC(=O)O3)[C@H]21` [Lovastatin], the IC50 is 23 nM.

`COC(=O)CC1CC(O)C(C(O)CC(C)O)O1` (stereo not shown) [Formel 1.4]: the inhibition at 0.01 µM amounted to 38%.

As to `C[C@H](CCCC(C)(C)O)[C@H]1CC[C@H]2[C@@H]3CC=C4C[C@@H](O)CC[C@]4(C)[C@H]3CC[C@]12C` [25-Hydroxycholesterin], the IC50 was determined as 230 nM.
